Laboratory results reported in paper PMC4830539, “Chemical Inhibition of Histone Deacetylases 1 and 2 Induces Fetal Hemoglobin through Activation of GATA2” (PLoS ONE, 2016).

Experiments:
GATA2 binding = test: GATA2 ChIP-Seq in erythroid progenitors; type: cell-based, human; conditions: 1 μM
Method: (§1) Cells were fixed in 1% formaldehyde for 15 minutes at room temperature. Crosslinking reaction was extinguished by adding glycine to 125 mM. Cells were washed three times in PBS, 0.5% lgepal CA-630, 1 mM phenylmethanesulfonyl fluoride (PMSF). Cell pellets were snap frozen on dry ice and stored at -80°C.
ChIP-Seq was performed by Active Motif (Carlsbad, CA). Chromatin (30 μg) from vehicle (n = 1) or ACY-957 (n = 1) treated cells was immunoprecipitated (n = 1, each) with antibodies against GATA2 (20 μL, sc-9008, Santa Cruz Biotechnology), HDAC1 (20 μg, ab7028, Abcam), or HDAC2 (4 μg, ab12169, Abcam). ChIP DNA, as well as a control sample composed of equal amounts of input DNA from each treatment group, was processed into Illumina libraries using standard procedures, and libraries were sequenced on HiSeq 2000. The 50-nt sequence reads were mapped to the human genome, build Hg19, using the BWA algorithm with default settings. For the analysis, all data files were normalized to the same number of unique alignments without duplicate reads (24 million). Sequence tags were extended in silico (using Active Motif software) at their 3′-ends to a length of 150 bp. To identify the density of fragments (extended tags) along the genome, the genome was divided into 32-nt bins and the number of fragments in each bin was determined. The resulting histogram files (bigwig format) are presented in figures using the Santa Cruz Genome Browser. Visualizations were exported as an eps file and formatted using Adobe Illustrator. Regions of GATA2 enrichment (intervals) were determined using MACS peak calling software, which identifies enrichments in the ACY-957 or vehicle treated ChIP data file when compared to the input DNA data file (random background). To compare peak metrics between vehicle and ACY-957 treated samples, overlapping intervals are grouped into active regions, which are defined by the start coordinate of the most upstream interval and the end coordinate of the most downstream interval. In locations where only one sample has an interval, this interval defines the active region. […]

[1] = tested on: GATA2 binding at the HBD promoter; test: GATA2 ChIP-QPCR at the HBD promoter; type: cell-based, human; conditions: 1 μM
Method: as §1
For ChIP-QPCR experiments, chromatin (11 μg) from vehicle (n = 1) or ACY-957 (n = 1) treated cells was fragmented by sonication, then immunoprecipitated (n = 3, each) using antibodies against histone H3 lysine 9 acetylation (3 μg, ab10812, Abcam), histone H2B lysine 5 acetylation (6 μL, ab40886, Abcam), histone H3 lysine 27 acetylation (3 μg, ab4729, Abcam), or GATA2 (6 μg, SC-9008, Santa Cruz). Specific genomic regions within immunoprecipitated and input DNA was detected using SYBR green QPCR with the following primer pairs:
GATA2 could affect HBG indirectly, through altering the expression of other factors which, in turn, act directly at the β-like globin gene cluster. […] To investigate this possibility, we looked at the β-like globin gene cluster in the GATA2 ChIP-Seq data presented above. Six statistically significant GATA2 binding peaks were identified in vehicle treated cells across the 70 kb region (Fig 9A); corresponding to four locus control region (LCR) hypersensitivity sites, a region in the HBB gene, and a region near the HBD gene promoter. […]

GATA2 binding at the other 5 regions of the β-like globin gene cluster (GATA2 binding; ChIP-Seq): not affected | GATA2 binding at control region within the HBB gene [1]: unaffected
SMILES: Nc1ccc(-c2cccs2)cc1NC(=O)c1ccc2nc(N3CCNCC3)ccc2c1 [ACY-957]
maximum increase in GATA2 binding peak height (GATA2 binding; -1.8 kb GATA2 regulatory region): 3 fold | increase in GATA2 binding at the HBD promoter region (GATA2 binding; ChIP-Seq): 1.8 fold | increase in GATA2 binding at the HBD promoter [1]: 2 fold
